Experimental data reported in US10583210B2, “Auger electron therapy for glioblastoma” (Syddansk Universitet, priority 2014, dated 2020).
“Also recorded” adds a separate entry of the source.

Tests used:
T87 glioblastoma cells = experiment: CellTiter Blue viability assay, T87 cells; assay type: cell-based, human
Experimental: (§1) Cells were cultured as free-floating spheroids in the absence of serum at 36° C. in a humidified incubator with 5% CO2. Two GSCs passage 9-12, designated […], were utilized. They were established, as previously described in our laboratory in 2009 ([…]) and 2010 ([…]), in accordance with the Regional Scientific Ethical Committee (approval number S-VF-20040102). They have; the ability to form new spheroids at clonal density, a karyotype typical of GBMs, the ability to differentiate into cells expressing neuronal, astrocytic and oligodendrocyte markers upon culturering in serum-containing medium and the ability to form highly invasive tumors upon orthotopic xenografting (exemplified for the […] GCS in Supplementary FIG. 1). […] The cells were then incubated in serum-free medium or serum-free medium containing either the non-radioactive, but chemically identical ^[…]-UdR (0.3 μg/ml, Sigma-Aldrich), or increasing activities of ^125I-UdR (0-3 kBq/ml). At day 7, 20 μl of CellTiter Blue (Promega) was added and the cells were returned to the incubator for 6 hours prior to recording of the fluorescence in a Victor3 Multilabel Plate Reader (PerkinElmer Life Sciences).

T87 GBM cells = experiment: 125I-UdR incorporation after MTX/F-UdR exposure, T87 (gammacounter); assay type: cell-based, human; conditions: for 125I-UdR incorporation compared to non-treated control cells: 1 hour pre-treatment with 1 μM, 16 h later 100 Bq/mL 125I-UdR for 72 h
Experimental: A) 1 hour pre-treatment of T87 GBM cells in vitro with 1 μM MTX or F-UdR before ^125I-UdR exposure increased the ^125I incorporation in the cells. […] The incorporation rate was determined by a gammacounter. […] F-UdR was effective in concentrations ≥1 nM while MTX was effective at ≥10 nM. At a F-UdR concentration of 10 μM, the 125I-incorporation declined presumably do to toxic effects from the F-UdR. […] Opposed to the T87 cell line, the T86 cell line is also known to have an unmethylated MGMT promoter region, thereby being less responsive to TMZ chemotherapy.

[1] = test system: TE-671 human rhabdomyosarcoma cells; conditions: IT bolus of 125I-UdR, IT infusion of MTX; cited from earlier work
[2] = test system: orthotopic xenografted GBM (evolved from the T87 GSC); experiment: Therapeutic study in orthotopic xenografted GBM-bearing nude rats (PET, survival, histology)
Experimental: All animal procedures were conducted in accordance with the obtained approval from the national Animal Experiments Inspectorate (permission J. Nr. 2008/561-1572). Male athymic nude rats (n=24) aged six weeks (Hsd:RH-Foxnl mu, Harlan laboratories) were anaesthetized subcutaneously (mixture of Hypnorm and Midazolam) and placed in a small animal stereotaxic instrument (Model 900, David Kopf Instruments). Through a midline scalp incision, the bregma was exposed, and one mm anteriorly and two mm laterally to this a burr hole was made. A blunt cannula (Hamilton 7102 syringe) was then advanced to a depth of 3.5 mm (right striatum), and a 2 μl cell suspension of 300,000 T87 single cells in Hank's Balanced Salt Solution (Gibco) supplemented with 0.9% glucose (SAD 500 mg/ml) was slowly injected. After removal of the cannula, the skin was closed with VICRYL 5.0 (Ethicon) disrupted sutures. Two weeks after tumor-cell inoculation, a SMP-200 iPRECIO® Micro Infusion Pump (Data Sciences International) was implanted subcutaneously, since preliminary experiments had shown establishment of tumors at this time point. Infusion protocols (instant mode, constant flow mode and 5 μl/hour infusion rate) were downloaded, and the pumps were conditioned according to Low Flow Infusion Standard Operational Procedure. Rats were anaesthetized and fixated as described above. The midline incision was re-incised and the burr hole was identified. A 4 mm pump connector cannula (PlasticsOne model 328OPM/PK/Spc) was then connected to the pump catheter and implanted (according to the manufactures Technical Note 6) with the tip of the cannula in the center of the bulk tumor. Pumps were loaded with isotone saline (n=8, group I) or 0.1 mM MTX (Sigma-Aldrich) (n=16, group II and III). Finally, the skin was closed with VICRYL 5.0 disrupted sutures. As one of the rats with an MTX loaded pump never woke up after surgery it was censored from the study. Two days later the 23 rats were anaesthetized using isoflurane, and residual saline or MTX was extracted from the pump reservoirs according to the manufacturer's instructions. The reservoirs were refilled with 960 μl of 0.3 μg/m ^127I-UdR (n=8, group I) or twice with the ^125I-UdR activity (n=15, group II and III), enabling 8 days of continuous infusion and a cumulated infused ^125I-UdR activity of 83±7 MBq.
Rats were fed ad libitum and to block the thyroid gland, KI (Sigma-Aldrich) was added to the drinking water (1 mg/ml) from the day of pump implantation and the following 14 days. At the end of the observation period (180 days after completion of treatment) or once animals reached the pre-determined humane endpoints (neurological deficits or >20% weight-loss) they were anaesthetized by isoflurane and euthanized by intravenous pentobarbital injection.
For tumor response evaluation, the animals were PET scanned biweekly in the initial phase and later every third week using the Inveon PET scanner. […] After the tracer injection pairs of animals were placed head-to-head in the scanner and at 40 min. post injection a 14 min. static scan was performed. The acquired data were reconstructed using the ordered subset expectation maximization in two dimensions algorithm without scatter and attenuation correction in the Inveon Acquisition Workplace software module (Siemens).
Brain, thyroid gland, liver and kidneys were removed post-mortem and fixed in 4% formaldehyde. After fixation, brains were divided in one mm thick coronal sections using a rat brain matrix (PlaticsOne) followed by paraffin embedment. […] Three μm sections were cut and all sections were stained with HE for morphological evaluation.

[3] = test system: T78 glioblastoma (GBM) cells; experiment: CellTiter Blue viability assay, T78 cells; assay type: cell-based, human
Experimental: as §1

T87 spheroids = experiment: 2D spheroid migration assay, T87; assay type: cell-based, human; conditions: for spheroid migration: 3 kBq/ml 125I-UdR or 0.3 μg/ml 127I-UdR, day 0-5, effect from day three
Experimental: (§2) Geltrex (Gibco) and serum-free medium was mixed (1+49) and 1.4 ml was added to each well in 12-well plates. Coated plates were incubated over night at 36° C. and the following morning the supernatant was aspirated. Then, one spheroid (100-200 μm) was aspirated into a 0.1-2.0 μl pipette and meticulously embedded in the coating. After incubating the plate for 75 minutes at 36° C., 800 μl serum-free medium was added. When spheroids started migrating (designated day 0) additionally 200 μl of serum-free medium (serving as untreated controls), ^127I-UdR or ^125I-UdR was added resulting in a final concentration of 0.3 μg/ml or 3 kBq/ml of ^127I-UdR or ^125I-UdR, respectively. Images were obtained daily from day 0 to day 5 using a Leica DM IRB inverted phase-contrast microscope, a Leica DFC300FX camera, and the Leica Application Suite version 2.6.0 RI computer software. The radius of the spheroids was determined (http://imagej.nih.gov/ij/) and the migration speed/day was calculated.

T78 spheroids = experiment: 2D spheroid migration assay, T78; assay type: cell-based, human; conditions: 3 kBq/ml 125I-UdR, from day three, vs 127I-UdR treated spheroids
Experimental: as §2

[4] = Intracerebral distribution by SPECT/CT; assay type: in vivo, athymic nude rats; conditions: constant intratumoral CED for 8 days, last day of infusion
Experimental: The intracranial distribution of infused ^125I-UdR was measured at the last day of infusion using a Siemens Inveon Small Animal PET/SPECT/CT scanner. The animals were anesthetized using isoflurane and subsequently SPECT scanned for approximately 42 min using 1.8 mm pinhole collimators (3×1.8 RWB collimators) with 30 projections in 180 degrees rotation. […] In one of the animals a low-dose CT scan was performed in combination with the SPECT scan to visualize the surrounding cranium.

C6 glioma = conditions: local implant, 7.4 MBq 125I-UdR, passive diffusion; cited from earlier work
[5] = Adverse effect evaluation (blood samples, post-mortem histology); assay type: in vivo, athymic nude rats
[6] = co-incubation with 18.5 KBq/mL 125I-UdR for 4 hours

O=c1[nH]c(=O)n([C@H]2C[C@H](O)[C@@H](CO)O2)cc1F [F-UdR, 5-Fluoro-2′-deoxyuridine]
killing effect compared with MTX (T87 glioblastoma cells; T87, 7 days exposure): stronger killing effect | 125I-UdR incorporation compared to non-treated control cells (T87 GBM cells): significantly increase | concentration effective in increasing 125I incorporation (T87 GBM cells; [6]): ≥ 1 nM | 125I-incorporation at 10 μM (T87 GBM cells; co-incubation with 18.5 KBq/mL 125I-UdR for 4 hours, presumably toxic effects): declined

CN(Cc1cnc2nc(N)nc(N)c2n1)c1ccc(C(=O)N[C@@H](CCC(=O)O)C(=O)O)cc1 [MTX, methotrexate]
125I-UdR incorporation compared to non-treated control cells (T87 GBM cells): significantly increase | concentration effective in increasing 125I incorporation (T87 GBM cells; [6]): ≥ 10 nM | median time to onset of paralysis [1]: no significant effect

Cn1nnc2c(C(N)=O)ncn2c1=O [TMZ, temozolomide]
maximum survival extrapolated for TMZ monotherapy ([2]; extrapolating the U87MG data to the present findings): 66 days | median survival ([2]; orthotopic GBM rat model, KM-survival plot FIG. 14): 47 days

O=c1[nH]c(=O)n([C@H]2C[C@H](O)[C@@H](CO)O2)cc1[125I] [^125I-UdR, 5-[^125I]iodo-2′-deoxyuridine]
IC50 (cell viability) (T87 glioblastoma cells; T87, 7 days exposure, non-linear regression, range printed 99-120 Bq/mL): 109 Bq/mL | cell survival compared to untreated controls (T87 glioblastoma cells; T87, day 7, most activity concentrations (0-3 kBq/ml), p<0.0001): significantly decreased | activity concentrations with highly significant effect compared to 127I-UdR (T87 glioblastoma cells; T87, p<0.0001): ≥ 100 Bq/ml | cell survival compared to untreated controls ([3]; T78, day 7, most activity concentrations (0-3 kBq/ml), p<0.0001): significantly decreased | activity concentrations with highly significant effect compared to 127I-UdR ([3]; T78, p<0.0001): ≥ 100 Bq/ml | spheroid migration (T87 spheroids): significantly reduced; also recorded: clearly inhibited | spheroid expansion in size (T87 spheroids; vs untreated or 127I-UdR exposed spheroids): not able to expand in size | spheroid migration (T78 spheroids): significantly reduced | 125I in the tumor region by SPECT/CT [4]: high concentration | animals surviving the entire observation period of 180 days (C6 glioma): 20% | median survival (C6 glioma): 35 days

O=c1[nH]c(=O)n([C@H]2C[C@H](O)[C@@H](CO)O2)cc1I [^127I-UdR, 5-iodo-2′-deoxyuridine]
spheroid migration (T87 spheroids): unaffected | animals with dark neurons in the hippocampus (CA3 region) ([5]; HE stained brain sections): 4/8 | animals with dark neurons in the neocortex ([5]; HE stained brain sections): 7/8 | thyroid gland histology ([5]; HE stained sections): normofollicular architecture | liver histology (hepatocyte necrosis, haemorrhage, inflammation) ([5]; PAS-diastase staining): no signs of hepatocyte necrosis, haemorrhage or inflammation | animals surviving the entire observation period of 180 days (C6 glioma): No ^127I-UdR treated animal survived the entire observation period | median survival (C6 glioma): 20 days | animals developing a PET-detectable tumor / tumor progression by [11C]MeAIB PET ([2]; 180 days observation period): rapidly progressed | animals surviving the entire observation period ([2]; 180 days, surviving/total animals): 0/8 | time from therapy initiation to the first PET-based tumor detection ([2]; [11C]MeAIB PET): 21 days | post-mortem histology of the brains ([2]; anti-human vimentin staining): very large tumors | longest survival after initiation of treatment ([2]; death due to massive tumor burden): ≤ 23 days
